Experimental data as given in US20220402948A1, “EGFR INHIBITOR, COMPOSITION AND PREPARATION METHOD THEREFOR” (BETTA PHARMACEUTICALS CO., LTD., priority 2019, published 2022).

Legend:
EGFR WT = EGFR WT (Homo sapiens, UniProt P00533); experiment: EGFR WT kinase test (mobility variation analysis, Caliper EZ Reader); assay type: biochemical; details: kinase enzymatic activity, Table 1
Summary of the method: (§1)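 Kinase pre-incubated with compound 10 minutes at room temperature, then ATP plus peptide substrate added; substrate conversion read by mobility shift after stop solution. Percent inhibition normalized to no-compound and no-enzyme controls; IC50 from variable-slope log(inhibitor) fit.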

[1] = target: Ba/F3 cells with EGFR Δ19del/T790M/C797S mutation gene stably overexpressed (Homo sapiens, UniProt P00533, T790M/C797S, cells depend on it, form not given); experiment: Ba/F3-Δ19del/T790M/C797S cell proliferation assay (CellTiter Glo, 72 hours); assay type: cell-based; details: Table 2, read-out: EGFR Δ19del/T790M/C797S IC50
Experimental: (§2) Cell line: Ba/F3 cells with EGFR Δ19del/T790M/C797S mutation gene stably overexpressed named Ba/F3-Δ119del/T90M/C797S, and A431 and Ba/F3-EGFR wild-type cell line.
(§3) a) Centrifuge the growth cells in logarithmic phase at 1000 rpm for 5 minutes, resuspend the cells in culture medium, and then count the cells;
(§4) b) Inoculate the cells into a 96-well cell culture plate with a density of 2000 cells/well;
(§5) b) Incubate cells in an incubator for another 72 hours.
(§6) a) Take out the 96-well cell culture plate and add 50 μl CTG reagent (CellTiter Glo kit, promega, Cat #G7573);
(§7) b) Shake the plate for 2 minutes and let cool at room temperature for 10 minutes;
(§8) c) Read luminous signal value with PerkinElmer reader,
(§9) Analysis of Experimental Data
(§10) The data were analyzed by GraphPad Prism 6.0 software to obtain the fitting curve of compound activity.
(§11) Y=Min+(Max−Min)/(1+10^((Log IC50−X)*slope));
(§12) X: Logarithm of compound concentration; Y: luminous signal.

IGF1R = IGF1R (Homo sapiens, UniProt P08069); experiment: IGF1R kinase test (mobility variation analysis, Caliper EZ Reader); assay type: biochemical; details: kinase enzymatic activity, Table 1; read-out: EGFR IGF1R IC50
Summary of the method: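 Kinase preincubated 10 min at room temperature with compound (10-point 3-fold series, top 3000 nM), then ATP and substrate added and reacted at room temperature. Substrate conversion read by mobility-shift (Caliper EZ Reader); % inhibition vs no-enzyme and no-compound controls fitted to variable-slope curve for IC50.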

A431 = A431 cell proliferation assay (CellTiter Glo, 72 hours); assay type: cell-based; details: Homo sapiens, A-431, 72 h, cell proliferation, A431, 72 hours, Table 2; read-out: A431 IC50
Experimental: as §2
RPMI 1640 and 10% FBS and 1% PS; DMEM and 10% FBS and 1% PS.
a) Dilute the test compound (20 mM stock solution) to 10 mM with 100% DMSO as the starting concentration, and then serially dilute 3 times with a “9+0” concentration in 96-well dilution plate (Cat #P-05525, Labcyte);
b) Dilute compound solution thereof to 1:100 (1:20 for comparative compound 1 and compounds 1-38) in medium to prepare 10-fold working solution;
as §3, §4
a) Compounds prepared at step 2 were added to cell plate with 15 μl per well, the final concentrations were 1000, 333, 111.1, 37, 12.3, 4.1, 1.4, 0.5, 0.2 and 0 nM, and the final concentration of DMSO was 0.1%. The blank control well was a culture medium (0.1% DMSO) (the blank control well of comparative compound 1 and compounds 1-38 was a culture medium (0.5% DMSO).
as §5, §6, §7, §8, §9, §10
Fitting compound IC50 from nonlinear regression equation:
as §11, §12

EGFRΔ19del/T790M/C797S = EGFRΔ19del/T790M/C797S (Homo sapiens, UniProt P00533, T790M/C797S, form not given); experiment: EGFR Δ19del/T790M/C797S kinase test (mobility variation analysis, Caliper EZ Reader); assay type: biochemical; details: kinase enzymatic activity, Table 1
Summary of the method: as §1

IGF1R, sequence (P08069 31-1367, species assumed): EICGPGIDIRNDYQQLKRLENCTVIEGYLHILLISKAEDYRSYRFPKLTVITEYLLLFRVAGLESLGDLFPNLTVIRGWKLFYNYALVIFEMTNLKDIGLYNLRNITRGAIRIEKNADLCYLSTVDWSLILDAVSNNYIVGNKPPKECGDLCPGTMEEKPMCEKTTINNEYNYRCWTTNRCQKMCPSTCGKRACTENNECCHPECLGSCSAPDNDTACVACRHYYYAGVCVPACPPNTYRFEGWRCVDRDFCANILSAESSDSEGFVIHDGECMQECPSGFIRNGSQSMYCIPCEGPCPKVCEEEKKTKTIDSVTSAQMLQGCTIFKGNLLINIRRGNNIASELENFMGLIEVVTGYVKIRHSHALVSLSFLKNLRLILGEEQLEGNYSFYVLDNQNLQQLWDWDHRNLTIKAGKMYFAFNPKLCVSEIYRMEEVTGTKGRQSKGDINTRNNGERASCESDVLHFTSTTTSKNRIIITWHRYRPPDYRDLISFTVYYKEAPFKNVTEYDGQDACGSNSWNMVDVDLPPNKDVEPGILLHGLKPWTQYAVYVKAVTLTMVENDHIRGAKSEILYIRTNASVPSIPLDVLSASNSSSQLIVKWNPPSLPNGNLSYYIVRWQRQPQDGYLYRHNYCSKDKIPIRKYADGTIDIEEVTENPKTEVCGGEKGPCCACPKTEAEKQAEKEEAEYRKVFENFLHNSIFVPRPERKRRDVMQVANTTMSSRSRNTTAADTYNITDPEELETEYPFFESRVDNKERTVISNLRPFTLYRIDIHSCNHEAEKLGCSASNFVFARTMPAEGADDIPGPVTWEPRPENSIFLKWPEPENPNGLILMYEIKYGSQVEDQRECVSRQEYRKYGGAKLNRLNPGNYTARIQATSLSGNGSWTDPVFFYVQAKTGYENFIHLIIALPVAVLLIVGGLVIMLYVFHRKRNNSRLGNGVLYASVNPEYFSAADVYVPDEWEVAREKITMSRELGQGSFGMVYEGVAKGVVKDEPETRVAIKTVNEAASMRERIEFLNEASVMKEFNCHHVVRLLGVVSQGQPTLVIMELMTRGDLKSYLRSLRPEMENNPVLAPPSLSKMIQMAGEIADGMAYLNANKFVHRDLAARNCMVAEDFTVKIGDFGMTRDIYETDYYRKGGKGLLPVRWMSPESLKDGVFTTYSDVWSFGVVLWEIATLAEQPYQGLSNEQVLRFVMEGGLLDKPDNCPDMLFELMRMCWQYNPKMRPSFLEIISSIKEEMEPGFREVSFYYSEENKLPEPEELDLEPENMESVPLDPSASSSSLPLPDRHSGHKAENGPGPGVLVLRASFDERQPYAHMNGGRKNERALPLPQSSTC
Ba/F3 cells with EGFR Δ19del/T790M/C797S mutation gene stably overexpressed, sequence (P00533 with tags, fused parts or gaps DEL746-750/T790M/C797S, form open): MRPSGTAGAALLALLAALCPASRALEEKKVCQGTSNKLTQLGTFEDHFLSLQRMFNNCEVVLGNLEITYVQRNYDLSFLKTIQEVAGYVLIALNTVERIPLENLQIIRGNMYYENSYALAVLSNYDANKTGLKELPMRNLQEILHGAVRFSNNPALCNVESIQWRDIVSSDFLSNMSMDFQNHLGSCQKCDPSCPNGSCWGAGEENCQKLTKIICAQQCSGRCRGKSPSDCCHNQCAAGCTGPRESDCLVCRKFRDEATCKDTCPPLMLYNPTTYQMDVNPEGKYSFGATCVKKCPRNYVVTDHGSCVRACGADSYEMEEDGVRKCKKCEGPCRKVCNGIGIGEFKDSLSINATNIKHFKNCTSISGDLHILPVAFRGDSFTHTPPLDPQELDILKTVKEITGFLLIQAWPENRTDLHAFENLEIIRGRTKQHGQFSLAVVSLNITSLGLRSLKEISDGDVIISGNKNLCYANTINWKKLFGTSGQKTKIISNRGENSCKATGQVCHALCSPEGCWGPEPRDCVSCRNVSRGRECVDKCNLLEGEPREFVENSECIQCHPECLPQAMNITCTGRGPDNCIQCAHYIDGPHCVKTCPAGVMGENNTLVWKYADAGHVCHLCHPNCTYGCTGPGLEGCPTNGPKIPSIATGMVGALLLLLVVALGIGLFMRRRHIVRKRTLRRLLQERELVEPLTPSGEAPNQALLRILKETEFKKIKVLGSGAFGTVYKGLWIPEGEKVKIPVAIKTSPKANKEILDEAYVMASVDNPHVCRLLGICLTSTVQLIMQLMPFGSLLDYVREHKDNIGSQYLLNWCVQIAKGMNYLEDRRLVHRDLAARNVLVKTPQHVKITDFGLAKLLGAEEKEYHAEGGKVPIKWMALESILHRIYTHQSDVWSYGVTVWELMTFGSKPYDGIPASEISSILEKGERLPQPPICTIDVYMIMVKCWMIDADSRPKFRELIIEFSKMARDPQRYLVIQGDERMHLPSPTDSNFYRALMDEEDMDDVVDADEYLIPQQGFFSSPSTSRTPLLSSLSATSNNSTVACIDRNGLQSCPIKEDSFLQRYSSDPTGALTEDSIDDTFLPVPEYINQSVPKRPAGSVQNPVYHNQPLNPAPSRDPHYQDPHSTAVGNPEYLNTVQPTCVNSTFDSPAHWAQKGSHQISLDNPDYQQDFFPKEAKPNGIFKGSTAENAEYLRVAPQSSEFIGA
EGFRΔ19del/T790M/C797S, sequence (P00533 with tags, fused parts or gaps DEL746-750/T790M/C797S, form open): as above
EGFR WT, sequence (P00533 25-1210): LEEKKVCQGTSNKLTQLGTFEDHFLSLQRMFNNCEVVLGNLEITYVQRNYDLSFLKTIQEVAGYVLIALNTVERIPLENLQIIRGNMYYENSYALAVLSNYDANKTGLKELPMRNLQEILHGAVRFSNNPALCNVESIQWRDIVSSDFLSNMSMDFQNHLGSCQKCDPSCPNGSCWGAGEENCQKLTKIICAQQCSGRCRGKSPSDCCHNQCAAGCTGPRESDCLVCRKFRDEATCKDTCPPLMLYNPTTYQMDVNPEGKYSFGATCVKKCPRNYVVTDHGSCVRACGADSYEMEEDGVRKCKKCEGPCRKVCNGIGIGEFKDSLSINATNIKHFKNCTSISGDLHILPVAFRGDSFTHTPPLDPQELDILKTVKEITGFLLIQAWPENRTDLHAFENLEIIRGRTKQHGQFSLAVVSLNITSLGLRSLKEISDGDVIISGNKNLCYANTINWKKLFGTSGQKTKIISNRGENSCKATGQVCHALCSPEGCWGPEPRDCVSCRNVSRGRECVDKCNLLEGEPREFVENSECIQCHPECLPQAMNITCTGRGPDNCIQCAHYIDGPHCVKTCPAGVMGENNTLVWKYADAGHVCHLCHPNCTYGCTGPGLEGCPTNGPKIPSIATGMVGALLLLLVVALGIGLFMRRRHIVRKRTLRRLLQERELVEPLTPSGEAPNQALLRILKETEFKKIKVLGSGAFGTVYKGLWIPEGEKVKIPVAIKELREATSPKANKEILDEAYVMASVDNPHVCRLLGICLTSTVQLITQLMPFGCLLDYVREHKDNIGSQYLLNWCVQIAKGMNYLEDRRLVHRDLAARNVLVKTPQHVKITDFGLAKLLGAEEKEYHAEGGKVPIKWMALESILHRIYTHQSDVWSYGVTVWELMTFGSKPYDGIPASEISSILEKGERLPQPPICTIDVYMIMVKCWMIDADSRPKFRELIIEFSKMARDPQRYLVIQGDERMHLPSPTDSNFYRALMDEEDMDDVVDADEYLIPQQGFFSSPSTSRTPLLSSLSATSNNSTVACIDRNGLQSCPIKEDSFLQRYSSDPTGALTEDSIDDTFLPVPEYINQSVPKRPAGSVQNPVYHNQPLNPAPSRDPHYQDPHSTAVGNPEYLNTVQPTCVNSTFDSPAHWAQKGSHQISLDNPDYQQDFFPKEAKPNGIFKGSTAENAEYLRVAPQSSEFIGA

| IC50 (EGFR WT) | GI50 [1] | IC50 (IGF1R) | IC50 (A431) | IC50 (EGFRΔ19del/T790M/C797S) | SMILES |
| --- | --- | --- | --- | --- | --- |
| 35.5 nM | 22.3 nM | 219 nM | 4640 nM | 0.2 nM | CCc1cc(Nc2ncc(Br)c(Nc3ccc(-c4ccc(C5CC5)nn4)cc3P(C)(C)=O)n2)c(OC)cc1N1CCC(N2CCN(C)CC2)CC1 [Compound 36, (2-((5-Bromo-2-((5-ethyl-2-methoxy-4-(4-(4-methylpiperazin-1-yl)piperidin-1-yl)phenyl)amino)pyrimidin-4-yl)amino)-5-(6-cyclopropylpyridazin-3-yl)phenyl)dimethylphosphine oxide] |
| 28.8 nM | 17.4 nM | 263 nM | > 10000 nM | 0.3 nM | CCc1cc(Nc2ncc(Br)c(Nc3ccc(-c4ccc(N(C)C)nn4)cc3P(C)(C)=O)n2)c(OC)cc1N1CCC(N2CCN(C)CC2)CC1 [Compound 37, (2-((5-Bromo-2-((5-ethyl-2-methoxy-4-(4-(4-methylpiperazin-1-yl)piperidin-1-yl)phenyl)amino)pyrimidin-4-yl)amino)-5-(6-(dimethylamino)pyridazin-3-yl)phenyl)dimethylphosphine oxide] |
| 11.1 nM | 11.2 nM | 64 nM | 711 nM | 0.3 nM | CCc1cc(Nc2ncc(Br)c(Nc3ccc(-c4cnsc4)cc3P(C)(C)=O)n2)c(OC)cc1N1CCC(N2CCN(C)CC2)CC1 [Compound 38, (2-((5-Bromo-2-((5-ethyl-2-methoxy-4-(4-(4-methylpiperazin-1-yl)piperidin-1-yl)phenyl)amino)pyrimidin-4-yl)amino)-5-(isothiazol-4-yl)phenyl)dimethylphosphine oxide] |
| 31.5 nM | 26.2 nM | 124 nM | 1080 nM | 0.4 nM | CCc1cc(Nc2ncc(Cl)c(Nc3ccc(-c4nnc(C)o4)cc3P(C)(C)=O)n2)c(OC)cc1N1CCC(N2CCN(C)CC2)CC1 [Compound 45, (2-((5-Chloro-2-((5-ethyl-2-methoxy-4-(4-(4-methylpiperazin-1-yl)piperidin-1-yl)phenyl)amino)pyrimidin-4-yl)amino)-5-(5-methyl-1,3,4-oxadiazol-2-yl)phenyl)dimethylphosphine oxide] |
| 47.6 nM | 30.3 nM | 628 nM | 2300 nM | 1.7 nM | CCc1cc(Nc2ncc(Br)c(Nc3ccc(-c4cn(C)c5ncccc45)cc3P(C)(C)=O)n2)c(OC)cc1N1CCC(N2CCN(C)CC2)CC1 [Compound 46, (2-((5-Bromo-2-((5-ethyl-2-methoxy-4-(-4-(4-methylpiperazin-1-yl)piperidin-1-yl)phenyl)amino)pyrimidin-4-yl)amino)-5-(1-methyl-1H-pyrrolo[2,3-b]pyridin-3-yl)phenyl)dimethylphosphine oxide] |
| 15.5 nM | 23.4 nM | 60 nM | 771 nM | 0.9 nM | CCc1cc(Nc2ncc(Br)c(Nc3ccc(-c4cnn(CCN5CCOCC5)c4)cc3P(C)(C)=O)n2)c(OC)cc1N1CCC(N2CCN(C)CC2)CC1 [Compound 47, (2-((5-Bromo-2-((5-ethyl-2-methoxy-4-(4-(4-methylpiperazin-1-yl)piperidin-1-yl)phenyl)amino)pyrimidin-4-yl)amino)-5-(1-(2-morpholinoethyl)-1hydro-pyrazol-4-yl)phenyl)dimethylphosphine oxide] |
| 30.8 nM | 23.5 nM | 269 nM | 578 nM | 1.3 nM | CCc1cc(Nc2ncc(Br)c(Nc3ccc(-c4ccccc4C#N)cc3P(C)(C)=O)n2)c(OC)cc1N1CCC(N2CCN(C)CC2)CC1 [Compound 51, 4′-((5-Bromo-2-((5-ethyl-2-methoxy-4-(4-(4-methylpiperazin-1-yl)piperidin-1-yl)phenyl)amino)pyrimidin-4-yl)amino)-3′-(dimethylphosphoryl)-[1,1′-biphenyl]-2-carbonitrile] |
| 38.8 nM | 24.5 nM | 335 nM | 512 nM | 1.3 nM | CCc1cc(Nc2ncc(Br)c(Nc3ccc(-c4cn(C)nc4OC)cc3P(C)(C)=O)n2)c(OC)cc1N1CCC(N2CCN(C)CC2)CC1 [Compound 63] |
| 43.1 nM | 47.3 nM | 330 nM | > 10000 nM | 0.8 nM | CCc1cc(Nc2ncc(Br)c(Nc3ccc(-c4cn(C)nc4C#N)cc3P(C)(C)=O)n2)c(OC)cc1N1CCC(N2CCN(C)CC2)CC1 [Compound 64, 4-(4-((5-Bromo-2-((5-ethyl-2-methoxy-4-(4-(4-methylpiperazin-1-yl)piperidin-1-yl)phenyl)amino]pyrimidin-4-yl)amino)-3-(dimethylphosphoryl)phenyl)-1-methyl-1H-pyrazole-3-carbonitrile] |
| 38 nM | 39.5 nM | 223 nM | 1530 nM | 0.9 nM | CCc1cc(Nc2ncc(Br)c(Nc3ccc(-c4ncc(C(C)C)cn4)cc3P(C)(C)=O)n2)c(OC)cc1N1CCC(N2CCN(C)CC2)CC1 [Compound 73, (2-((5-Bromo-2-((5-ethyl-2-methoxy-4-(4-(4-methylpiperazin-1-yl)piperidin-1-yl)phenyl)amino)pyrimidin-4-yl)amino)-5-(5-isopropylpyrimidin-2-yl)phenyl)dimethylphosphine oxide] |
| 24 nM | 15.7 nM | 186 nM | 1560 nM | 0.3 nM | CCc1cc(Nc2ncc(Br)c(Nc3ccc(-c4cnc(N(C)C)nc4)cc3P(C)(C)=O)n2)c(OC)cc1N1CCC(N2CCN(C)CC2)CC1 [Compound 74, (2-((5-Bromo-2-((5-ethyl-2-methoxy-4-(4-(4-methylpiperazin-1-yl)piperidin-1-yl)phenyl)amino)pyrimidin-4-yl)amino)-5-(2-(dimethylamino)pyrimidin-5-yl)phenyl)dimethylphosphine oxide] |
| 36 nM | 37.4 nM | 114 nM | 1520 nM | 0.3 nM | CCOc1ncc(-c2ccc(Nc3nc(Nc4cc(CC)c(N5CCC(N6CCN(C)CC6)CC5)cc4OC)ncc3Br)c(P(C)(C)=O)c2)cn1 [Compound 76] |
| 18.1 nM | 10.7 nM | 191 nM | 5650 nM | 0.4 nM | CCc1cc(Nc2ncc(Br)c(Nc3ccc(-c4cnc(C5CC5)cn4)cc3P(C)(C)=O)n2)c(OC)cc1N1CCC(N2CCN(C)CC2)CC1 [Compound 79, (2-((5-Bromo-2-((5-ethyl-2-methoxy-4-(4-(4-methylpiperazin-1-yl)piperidin-1-yl)phenyl)amino)pyrimidin-4-yl)amino)-5-(5-cyclopropylpyrazin-2-yl)phenyl)dimethylphosphine oxide] |
| 12.8 nM | 8.2 nM | 81 nM | 4610 nM | 0.2 nM | CCc1cc(Nc2ncc(Br)c(Nc3ccc(-c4cnc(C)cn4)cc3P(C)(C)=O)n2)c(OC)cc1N1CCC(N2CCN(C)CC2)CC1 [Compound 80, (2-((5-Bromo-2-((5-ethyl-2-methoxy-4-(4-(4-methylpiperazin-1-yl)piperidin-1-yl)phenyl)amino)pyrimidin-4-yl)amino)-5-(5-methylpyrazin-2-yl)phenyl)dimethylphosphine oxide] |
| 12.6 nM | 16.8 nM | 142 nM | 875 nM | 0.6 nM | CCc1cc(Nc2ncc(Br)c(Nc3ccc(-c4cnc(C)c(C)n4)cc3P(C)(C)=O)n2)c(OC)cc1N1CCC(N2CCN(C)CC2)CC1 [Compound 81, (2-((5-Bromo-2-((5-ethyl-2-methoxy-4-(4-(4-methylpiperazin-1-yl)piperidin-1-yl)phenyl)amino)pyrimidin-4-yl)amino)-5-(5,6-dimethylpyrazin-2-yl)phenyl)dimethylphosphine oxide] |
